This is an account of results in patent US7452908B2, “Amide derivatives” (Banyu Pharmaceutical Co., Ltd., priority 1999, dated 2008).

For experiment [1], the target named is T1, human m1 muscarinic acetylcholine receptor expressed in CHO cells (Homo sapiens, UniProt P11229).
T1 construct: purchased Receptor Biology, Inc; host or cells: CHO cells
T1 sequence (P11229 1-460): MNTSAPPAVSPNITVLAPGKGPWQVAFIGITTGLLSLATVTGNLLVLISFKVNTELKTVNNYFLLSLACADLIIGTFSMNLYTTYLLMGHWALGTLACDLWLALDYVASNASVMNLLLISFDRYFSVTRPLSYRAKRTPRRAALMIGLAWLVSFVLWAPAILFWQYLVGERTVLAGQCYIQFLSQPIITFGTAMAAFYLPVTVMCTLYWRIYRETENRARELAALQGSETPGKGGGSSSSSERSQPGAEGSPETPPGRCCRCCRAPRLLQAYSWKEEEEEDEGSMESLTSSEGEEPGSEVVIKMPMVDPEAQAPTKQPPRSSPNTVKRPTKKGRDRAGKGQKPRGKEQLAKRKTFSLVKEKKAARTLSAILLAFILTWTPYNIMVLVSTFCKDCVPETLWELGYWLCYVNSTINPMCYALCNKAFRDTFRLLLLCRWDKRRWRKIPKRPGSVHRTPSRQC
The experiment can be described thus: Inhibition of [3H]-N-methylscopolamine binding to muscarinic m1 receptor. Particulars: 0.2 nM [3H]-N-methylscopolamine. Here is the method: (§1) These tests were performed according to a modification of the method of Hargreaves, et al. (Br. J. Pharmacol. 107: 494-501, 1992). Namely, muscarinic acetylcholine receptors of human m1, m2, m3, m4 and m5 expressed in CHO cells (Receptor Biology, Inc.) were incubated with 0.2 nM [^3H]-N-methylscopolamine (82Ci/mmol, New England Nuclear, Inc.) and a test compound to be tested in 0.5 ml of 50 mM Tris-HCl, 10 mM MgCl2, 1 mM EDTA solution (pH 7.4) for 120 minutes at room temperature (about 20-25° C.), followed by suction filtration over a glass filter (UniFilter plate-GF/C; Packard). Then the filter was washed four times with 1 ml of ice-cold Tris-HCl buffer and dried at 50° C. for an hour. After adding a scintillator (Microscinti 0; Packard), the radioactivity of [^3H]-N-methylscopolamine binding to the filter was counted with a microplate scintillation counter (TopCount™; Packard). Non-specific receptor binding of [^3H]-N-methylscopolamine was measured by adding 1 μM N-methylscopolamine.

For experiment [2], the target named is T2, human m2 muscarinic acetylcholine receptor expressed in CHO cells (Homo sapiens, UniProt P08172).
T2 construct: purchased Receptor Biology, Inc; host or cells: CHO cells
T2 sequence (P08172 1-466): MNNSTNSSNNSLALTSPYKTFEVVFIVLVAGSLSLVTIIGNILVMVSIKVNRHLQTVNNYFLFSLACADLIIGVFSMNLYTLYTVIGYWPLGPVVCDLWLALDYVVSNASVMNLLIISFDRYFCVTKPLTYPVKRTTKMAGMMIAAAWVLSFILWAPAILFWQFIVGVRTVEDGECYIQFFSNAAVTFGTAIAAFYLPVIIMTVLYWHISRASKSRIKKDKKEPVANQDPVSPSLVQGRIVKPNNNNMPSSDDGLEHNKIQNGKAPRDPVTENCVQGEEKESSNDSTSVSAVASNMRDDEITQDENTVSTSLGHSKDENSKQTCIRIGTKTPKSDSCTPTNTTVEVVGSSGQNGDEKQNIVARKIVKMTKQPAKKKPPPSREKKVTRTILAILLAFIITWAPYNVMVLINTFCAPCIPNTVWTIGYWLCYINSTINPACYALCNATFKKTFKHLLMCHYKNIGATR
The experiment in a line: Inhibition of [3H]-N-methylscopolamine binding to muscarinic m2 receptor. Particulars: 0.2 nM [3H]-N-methylscopolamine. Here is the method:
as §1

In experiment [3] the target is T3, human m3 muscarinic acetylcholine receptor expressed in CHO cells (Homo sapiens, UniProt P20309).
T3 construct: purchased Receptor Biology, Inc; host or cells: CHO cells
T3 sequence (P20309 whole entry): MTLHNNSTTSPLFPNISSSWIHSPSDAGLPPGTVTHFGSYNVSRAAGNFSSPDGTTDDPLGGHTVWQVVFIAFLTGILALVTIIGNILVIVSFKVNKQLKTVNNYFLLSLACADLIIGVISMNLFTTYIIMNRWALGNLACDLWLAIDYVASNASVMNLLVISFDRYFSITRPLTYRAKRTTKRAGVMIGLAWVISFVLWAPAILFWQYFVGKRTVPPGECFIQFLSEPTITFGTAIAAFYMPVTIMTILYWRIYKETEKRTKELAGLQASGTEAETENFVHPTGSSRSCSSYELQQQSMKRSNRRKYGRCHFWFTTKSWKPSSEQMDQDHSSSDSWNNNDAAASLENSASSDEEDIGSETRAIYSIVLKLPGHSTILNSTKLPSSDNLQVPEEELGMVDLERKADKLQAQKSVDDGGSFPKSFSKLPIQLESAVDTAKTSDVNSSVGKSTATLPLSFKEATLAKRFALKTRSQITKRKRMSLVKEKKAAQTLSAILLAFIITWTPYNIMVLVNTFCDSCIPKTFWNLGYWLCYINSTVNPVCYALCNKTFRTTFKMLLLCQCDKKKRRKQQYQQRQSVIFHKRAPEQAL
The experiment can be described thus: Inhibition of [3H]-N-methylscopolamine binding to muscarinic m3 receptor. Particulars: for Ki: human m3 in CHO cells, 0.2 nM [3H]-N-methylscopolamine; for Selectivity m1/m3: ratio of Ki m1 to Ki m3; for Selectivity m2/m3: ratio of Ki m2 to Ki m3; for Selectivity m4/m3: ratio of Ki m4 to Ki m3; for Selectivity m5/m3: ratio of Ki m5 to Ki m3. Here is the method: as §1

The target in experiment [4] is T4, human m4 muscarinic acetylcholine receptor expressed in CHO cells (Homo sapiens, UniProt P08173).
T4 construct: purchased Receptor Biology, Inc; host or cells: CHO cells
T4 sequence (P08173 1-479): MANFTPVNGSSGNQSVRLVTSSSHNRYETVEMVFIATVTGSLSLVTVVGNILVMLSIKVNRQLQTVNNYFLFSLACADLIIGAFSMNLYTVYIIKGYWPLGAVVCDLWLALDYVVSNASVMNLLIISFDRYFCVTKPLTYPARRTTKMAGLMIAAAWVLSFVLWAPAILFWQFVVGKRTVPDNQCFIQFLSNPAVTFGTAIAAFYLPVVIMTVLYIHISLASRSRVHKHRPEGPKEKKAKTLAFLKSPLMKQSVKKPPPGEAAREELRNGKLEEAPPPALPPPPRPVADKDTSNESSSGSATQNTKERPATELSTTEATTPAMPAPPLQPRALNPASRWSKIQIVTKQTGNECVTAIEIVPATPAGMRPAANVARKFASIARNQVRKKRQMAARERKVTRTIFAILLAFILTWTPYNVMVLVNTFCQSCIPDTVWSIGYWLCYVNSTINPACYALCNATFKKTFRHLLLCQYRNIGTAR
The experiment in a line: Inhibition of [3H]-N-methylscopolamine binding to muscarinic m4 receptor. Particulars: 0.2 nM [3H]-N-methylscopolamine. The protocol: as §1

Experiment [5] has as its target T5, human m5 muscarinic acetylcholine receptor expressed in CHO cells (Homo sapiens, UniProt P08912).
T5 construct: purchased Receptor Biology, Inc; host or cells: CHO cells
T5 sequence (P08912 1-532): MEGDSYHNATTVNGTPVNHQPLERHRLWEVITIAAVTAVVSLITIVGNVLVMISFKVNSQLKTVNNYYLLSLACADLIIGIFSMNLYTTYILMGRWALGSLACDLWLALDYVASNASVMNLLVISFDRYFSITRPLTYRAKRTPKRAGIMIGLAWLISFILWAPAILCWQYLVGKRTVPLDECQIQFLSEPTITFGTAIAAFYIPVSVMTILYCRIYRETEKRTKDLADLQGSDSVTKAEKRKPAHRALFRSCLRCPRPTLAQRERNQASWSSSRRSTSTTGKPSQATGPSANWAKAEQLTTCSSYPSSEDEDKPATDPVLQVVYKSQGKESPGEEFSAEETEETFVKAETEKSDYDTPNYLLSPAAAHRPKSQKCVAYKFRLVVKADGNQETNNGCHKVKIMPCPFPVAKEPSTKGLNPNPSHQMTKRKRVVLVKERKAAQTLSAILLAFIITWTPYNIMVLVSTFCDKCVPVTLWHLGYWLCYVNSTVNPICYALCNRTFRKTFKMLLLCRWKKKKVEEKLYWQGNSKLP
The experiment in a line: Inhibition of [3H]-N-methylscopolamine binding to muscarinic m5 receptor. Particulars: 0.2 nM [3H]-N-methylscopolamine. Here is the method: as §1

In experiment [1], `CCCCCN1CCC[C@H](CNC(=O)CCNC(=O)CNC(=O)CC(c2ccccc2)(c2ccccc2)c2ccccc2)C1` [Example 6, N-{2-(3-{((3R)-1-pentyl-3-piperidyl)methyl}amino-3-oxopropyl)amino-2-oxoethyl}-3,3,3-triphenylpropanamide] showed a Ki of 860 nM. The compound also registered a Ki in experiment [2] of 250 nM. For the same compound, in experiment [3], the affinity, expressed as Ki, was 1.8 nM; the “Selectivity m1/m3” value is recorded as 480 times; the “Selectivity m2/m3” value is 140 times; the “Selectivity m4/m3” value is listed as 37 times. Besides, in experiment [3], the “Selectivity m5/m3” value is recorded as 46 times. In addition, in experiment [4], the Ki amounted to 66 nM. The same compound yielded a Ki in experiment [5] of 82 nM.

`O=C(CCNC(=O)[C@H](Cc1c[nH]cn1)NC(=O)CC(c1ccccc1)(c1ccccc1)c1ccccc1)NC[C@H]1CCCN(CC2CCCCC2)C1` [Example 19, N-{(1S)-2-(3-{((3R)-1-cyclohexylmethyl-3-piperidyl)methyl}-amino-3-oxopropyl)amino-1-(1H-imidazol-4-ylmethyl)-2-oxoethyl}-3,3,3-triphenylpropanamide] registered a Ki in experiment [1] of 270 nM. For the same compound, in experiment [2], the affinity, expressed as Ki, was 30 nM. Also, in experiment [3], the Ki came to 0.75 nM, the “Selectivity m1/m3” value is given as 360 times, the “Selectivity m2/m3” value was determined as 40 times and the “Selectivity m4/m3” value is listed as 11 times. In addition, the “Selectivity m5/m3” value in experiment [3] is given as 25 times. For the same compound, the Ki in experiment [4] amounted to 8.1 nM. For the same compound, in experiment [5], the Ki was determined as 19 nM.

In experiment [1], `O=C(CCCCCNC(=O)CC(c1ccccc1)(c1ccccc1)c1ccccc1)NC[C@H]1CCCN(CC2CCCCC2)C1` [Example 28, N-(6-{((3R)-1-cyclohexylmethyl-3-piperidyl)methyl}amino-6-oxohexyl)-3,3,3-triphenylpropanamide] gave a Ki of 130 nM. Further, the affinity in experiment [2] corresponds to a Ki of 85 nM. In experiment [3], the affinity, expressed as Ki, was 1.2 nM; the “Selectivity m1/m3” value is listed as 110 times; the “Selectivity m2/m3” value was found to be 71 times; the “Selectivity m4/m3” value was found to be 30 times. In experiment [3], the “Selectivity m5/m3” value is on record as 180 times. For the same compound, the affinity in experiment [4] corresponds to a Ki of 36 nM. In experiment [5], this compound showed a Ki of 220 nM.

Take `CC[N+]1(CC)CCC[C@H](CNC(=O)[C@H]2CCCN2C(=O)[C@@H]2C[C@@H](O)CN2C(=O)CC(c2ccc(Cl)cc2)(c2ccc(Cl)cc2)c2ccc(Cl)cc2)C1.[Cl-]` [Example 144, (3R)-1,1-diethyl-3-({({(2R)-1-({(2S,4R)-4-hydroxy-1-{3,3,3-tris-(4-chlorophenyl)propanoyl}-2-pyrrolidinyl}carbonyl)-2-pyrrolidinyl}-carbonyl)amino}methyl)piperidinium chloride]: the Ki in experiment [1] was 110 nM; in experiment [2], 110 nM; in experiment [3], 1.3 nM; in experiment [4], 27 nM; in experiment [5], 230 nM. The “Selectivity m1/m3” value in experiment [3] came out at 85 times. Moreover, the “Selectivity m2/m3” value in experiment [3] is 85 times. Further, the “Selectivity m4/m3” value in experiment [3] is on record as 21 times. Moreover, in experiment [3], the “Selectivity m5/m3” value was 180 times.

Regarding `CCCCCCC[N+]1(C)CCC[C@H](CNC(=O)CCNC(=O)CNC(=O)CC(c2ccccc2)(c2ccccc2)c2ccccc2)C1.[Br-]` (stereo partly drawn) [Example 146, (3R)-1-heptyl-1-methyl-3-({(3-{(2-{(3,3,3-triphenylpropanoyl)amino}acetyl)amino}propanoyl)amino}methyl)piperidinium bromide], affinity in experiment [1] was put at a Ki of 1200 nM. The compound further came in with a Ki in experiment [2] of 1000 nM. In experiment [3], the affinity, expressed as Ki, was 15 nM; the “Selectivity m1/m3” value is 80 times; the “Selectivity m2/m3” value is listed as 67 times; the “Selectivity m4/m3” value stood at 24 times. Moreover, the “Selectivity m5/m3” value in experiment [3] is 33 times. In experiment [4], this compound gave a Ki of 360 nM. Moreover, in experiment [5], the Ki worked out at 490 nM.

Regarding `CC[C@H](C)C[N+]1(CC)CCC[C@@H](CNC(=O)CCCCCNC(=O)CC(c2ccccc2)(c2ccccc2)c2ccccc2)C1.[Cl-]` (stereo partly drawn) [Example 150, (3S)-1-ethyl-1-{(2S)-2-methylbutyl}-3-({(6-{(3,3,3-triphenylpropanoyl)amino}hexanoyl)amino}methyl)piperidinium chloride], the Ki came to 150 nM in experiment [1]; 490 nM in experiment [2]; 4.7 nM in experiment [3]; 310 nM in experiment [4]; 850 nM in experiment [5]. Also, the “Selectivity m1/m3” value in experiment [3] is 32 times. The “Selectivity m2/m3” value in experiment [3] came to 100 times. In addition, the “Selectivity m4/m3” value in experiment [3] is 66 times. The “Selectivity m5/m3” value in experiment [3] is 180 times.

Broadly, the Ki is the equilibrium dissociation constant of an inhibitor or competing ligand from its target. Low readings indicate tighter binding, high ones weaker binding.
